Measured values: US20040220081A1, “Nanoparticulate bioactive agents” (Spherics, Inc., priority 2002, published 2004)

Legend:
in vivo = settings: rat
[1] = Electron microscopy of precipitated particles of other drugs; type: physicochemical; settings: 3% drug in dichloromethane precipitated in 100 vol. pentane, needles
Description: In other experiments, 3% of the drug carbamazepine in dichloromethane was precipitated in 100 vol. of pentane. By electron microscopy, the particles were predominantly needles, about 1 micron in diameter by 50 microns in length. A few 1 micron spherical particles were also observed. A similar experiment using the drug itraconazole produced generally spherical particles in the range of about 0.1 to 0.5 microns diameter, by electron microscopy.

Row | Compound | bioavailability (in vivo) [%] | particle diameter [1] | particle length [1] [microns]
1 | CC(=O)O[C@H]1C(=O)[C@@]2(C)[C@H]([C@H](OC(=O)c3ccccc3)[C@]3(O)C[C@H](OC(=O)[C@H](O)[C@@H](NC(=O)c4ccccc4)c4ccccc4)C(C)=C1C3(C)C)[C@]1(OC(C)=O)CO[C@@H]1C[C@@H]2O [(e), paclitaxel] | 0.7 | – | –
2 | NC(=O)N1c2ccccc2C=Cc2ccccc21 [carbamazepine] | – | about 1 micron | ~50
